Results: PMC5116089, “Sulfheme formation during homocysteine S-oxygenation by catalase in cancers and neurodegenerative diseases” (Nature Communications, 2016)
Read-outs that look alike come from different tables or passages of the source.

System: crypt and surface epithelial cells
Experiment: H2O2 consumption in cell lysates as a function of NaSH concentration
Type: biochemical, mice
Conditions: read-out: relative IC50 (rate of H2O2 consumption)
Description: CAT activity was measured on an Uvikon 941 spectrophotometer equipped with a temperature controlled water bath (±1 °C) by following the disappearance of H2O2 at 240 nm over 30–120 s at 25 °C. Catalase activity was calculated based on the rate of decomposition of hydrogen peroxide, which is proportional to the reduction of the absorbance at 240 nm. Experiments were carried out in a 3 ml quartz cuvette containing 11.7 mM H2O2 in 50 mM KPi, pH 7.4±1 mM DTPA and the reaction was initiated by adding 0.3–0.6 pmoles of CAT. The effect of biological thiols on the activity of CAT under physiological conditions was determined from a solution of CAT (30–60 nM) preincubated at 25 °C for at least 120 min as a function thiol concentration (0–40 mM for HCys and Cys, 0–100 mM for GSH) in 50 mM KPi, pH 7.4, 1 mM DTPA. Control experiments (biological thiols alone) were also performed in parallel. […] Similarly, the effect of biological thiols on the activity of CAT under pathological conditions was determined from a solution of CAT (30–60 nM) containing a 2.124±0.386 molar excess of iron that was preincubated with various concentrations of thiols (0–1 mM) for at least 120 min at 25 °C in 50 mM KP at pH 7.4. […] The effect of NaSH on the consumption of H2O2 in cell lysates was determined from a solution of cell lysates (0.5–3 mg ml^−1) incubated on ice with various concentrations of NaSH (0–200 μM). […]

`[Na+].[SH-]` [NaSH] was tested. Which IC50 (cells isolated from DSS-treated mice) did it give?
The IC50 was 21.6 ± 6.2 µM.

What about the IC50 (cells isolated from untreated mice) of the same compound?
The IC50 was 25.2 ± 6.7 µM.
